Experimental data as given in publication PMC3573878 (Structure (London, England : 1993), 2012).

Molecular target: ex-LdtMt2 (LdtMt2; MT2594; product of gene Rv2518c) (Mycobacterium tuberculosis, UniProt O53223)
Experiment: isothermal titration calorimetry, single-site model
Assay type: binding

Work on `C[C@@H](O)[C@H]1C(=O)N2C(C(=O)O)=C(SCCN=CN)C[C@H]12` [imipenem] yielded a Kd of 54.8 ± 8.8 nM.
